Laboratory results from PubChem BioAssay (NCI).
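96-well plates; 48 h exposure; 5 concentrations. Endpoints by linear interpolation between flanking doses. Not reached: highest tested concentration assigned. TGI is the concentration that stops growth completely.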 Where a SMILES comes first, the peptide text is derived from it. [ ]: non-standard residue; d: D form. The star is where a group is joined. ξ: configuration not given here. ξD = NC(CC(=O)O)C(=O)O; Boc = CC(C)(C)OC(=O)*; Aib = CC(C)(N)C(=O)O; OBn = c1ccc(CO*)cc1

Legend:
Assay in all cases: NCI anticancer screen, dose series, 48 h
[1] = system: COLO 205 colon
[2] = system: CAKI-1 renal
[3] = system: U251 CNS
[4] = system: HOP-62 NSCLC
[5] = system: K-562 leukemia
[6] = system: HCT-116 colon
[7] = system: MALME-3M melanoma

Row | Structure (SMILES) | TGI [1] [µM] | TGI [2] [µM] | TGI [3] [µM] | TGI [4] [µM] | TGI [5] [µM] | TGI [6] [µM] | TGI [7] [µM]
1 | O=C(NCCCCCCCCNC(=O)Nc1cccc2ccccc12)Nc1cccc2ccccc12 | > 100 | > 100 | 8.49 | 50.6 | 46.7 | > 100 | > 100
2 | NC1CCN(c2nc3ccccc3c3c2CCCC3)CC1 | 3.22 | 19.1 | 14.8 | 35.1 | 6.58 | 14.4 | 19.8
3 | Cc1nc(C(N)=S)sc1C(=O)CC(=O)C(=O)Nc1ccc(Br)cc1 | – | > 100 | > 100 | > 100 | > 100 | > 100 | > 100
4 | Cc1nc2ccc(Cl)cc2c2c1CCN2c1ccc(F)cc1 | 56.5 | > 100 | > 100 | > 100 | > 100 | > 100 | 82
5 | O=C(C[C@@H]1CCCN2CCCC[C@H]12)N1c2ccccc2Sc2ccc(Cl)cc21 | 26.1 | 27.6 | 24.4 | 26 | 35.2 | 29.5 | 31.2
6 | CCC1C(NC(=O)OC)C(=O)N1[C@@H](C)c1ccccc1 (stereo partly drawn) | > 100 | > 100 | > 100 | > 100 | > 100 | > 100 | > 100
7 | Cc1c(-c2ccccc2)c(C#N)c2nnn(-c3ccc(Cl)cc3)c(=O)n12 | 42.3 | > 100 | 27.3 | > 100 | > 100 | > 100 | > 100
8 | CC(C)(C)OC(=O)NC(CC(=O)OCc1ccccc1)C(=O)NC(C)(C)C(N)=O (stereo not drawn) (Boc-[ξD](OBn)-[Aib]-NH2) | > 100 | > 100 | > 100 | > 100 | > 100 | > 100 | > 100
9 | CC(=O)C1C(=O)C(=O)N(c2ccc([N+](=O)[O-])cc2[N+](=O)[O-])C1=O (stereo not drawn) | > 100 | > 100 | > 100 | > 100 | – | > 100 | –
10 | CCCC(=O)OCC1OC(n2cc(F)c(=O)[nH]c2=O)C(F)C1O (stereo not drawn) | > 100 | – | > 100 | > 100 | > 100 | > 100 | > 100
11 | FC(F)(F)c1ccc2c(-c3cc[nH]c3)ccnc2c1 | 43.8 | 94 | > 100 | > 100 | > 100 | > 100 | 50.4
12 | Cc1ccc(S(=O)(=O)C2=Cc3ccccc3C2(O)c2ccccc2)cc1 (stereo not drawn) | 62.6 | – | 87.7 | > 10 | 76.5 | > 100 | –
13 | N#CC(O)CCOCc1ccccc1 (stereo not drawn) | > 100 | 35.6 | > 100 | > 100 | > 100 | > 100 | –
14 | O=C(O)CCC(NC(=O)c1ccc(Oc2nc3ccccc3nc2C(=O)O)cc1)C(=O)O (stereo not drawn) | > 100 | > 100 | > 100 | > 100 | > 100 | > 100 | > 100
15 | O=C(/C=C/c1ccc([N+](=O)[O-])cc1)N1CCN(CCOC(c2ccc(F)cc2)c2ccc(F)cc2)CC1 | 27.3 | > 100 | > 100 | > 100 | > 100 | > 100 | > 100
16 | O=C(NC(CS)C(=O)O)c1c2ccccc2nc2ccccc12 (stereo not drawn) | 23.5 | > 100 | > 100 | > 100 | > 100 | > 100 | 56.8
17 | CC(C(=O)NCNC(=O)c1ccccc1)C(=O)Nc1ccccc1 (stereo not drawn) | > 100 | > 100 | > 100 | – | – | > 100 | > 100
18 | COc1cc(/C=C2\CCC(C)C3=C2N=c2s/c(=C/c4ccc(Cl)cc4)c(=O)n2C3c2cc(OC)c(OC)c(OC)c2)cc(OC)c1OC (stereo not drawn) | – | > 100 | > 100 | > 100 | > 100 | > 100 | –
19 | CCCCCCCCCCC/C=C(/C(=O)CCCO[Si](C)(C)C(C)(C)C)C(=O)OC | > 100 | > 100 | > 100 | > 100 | > 100 | > 100 | > 100
20 | CCOC(=O)c1cc(=O)c2cccc3c2n1CCS3 | > 100 | > 100 | > 100 | > 100 | – | > 100 | –
21 | O=C1NC(=O)C(CCC(=O)c2cccc3ccccc23)C(=O)N1 | > 100 | > 100 | > 100 | – | > 100 | > 100 | –
22 | N#Cc1ccc(C2ON=C(c3ccccc3)N2C23CC4CC(CC(C4)C2)C3)cc1 (stereo not drawn) | > 10 | > 10 | > 10 | > 10 | > 10 | > 10 | > 10
23 | O=S(Cc1ccccc1)c1ccccc1Cn1cccc1 (stereo not drawn) | > 100 | > 100 | > 100 | > 100 | > 100 | > 100 | > 100
24 | C/C(O)=C(/C=N/C(=S)Nc1ccccc1)C(=O)Nc1ccccc1C | > 100 | > 100 | > 100 | > 100 | > 100 | > 100 | > 100
25 | Cn1c(-c2ccccc2)cc(-c2ccc3c(c2)OCO3)c1-c1ccsc1 | > 100 | > 100 | > 100 | > 100 | > 100 | > 100 | –
26 | C/C(=N\O)c1ccc(OCc2cc(C(F)(F)F)cc(C(F)(F)F)c2)cc1 | > 100 | > 100 | > 100 | > 100 | > 100 | > 100 | > 100
27 | NC(=O)N/N=C\CC(O)(C(F)(F)Cl)C(F)(F)Cl | > 10 | > 10 | > 10 | > 10 | > 10 | > 10 | > 10
